ChEMBL document CHEMBL3769328, “Design and optimization of tricyclic gamma-secretase modulators” (Bioorg Med Chem Lett, 2016)
Active and inactive are the calls of the source. The rule behind the calls is not given here.

Key:
[1] = system: Gamma-secretase; test: Modulation of gamma secretase in human H4 cells assessed as inhibition of amyloid beta (1 to 42) production; assay type: cell-based
[2] = molecular target: Cytochrome P450 3A4 (Homo sapiens, UniProt P08684); test: Inhibition of CYP3A4 (unknown origin) by fluorescence assay
Chain of Cytochrome P450 3A4 (P08684 whole entry): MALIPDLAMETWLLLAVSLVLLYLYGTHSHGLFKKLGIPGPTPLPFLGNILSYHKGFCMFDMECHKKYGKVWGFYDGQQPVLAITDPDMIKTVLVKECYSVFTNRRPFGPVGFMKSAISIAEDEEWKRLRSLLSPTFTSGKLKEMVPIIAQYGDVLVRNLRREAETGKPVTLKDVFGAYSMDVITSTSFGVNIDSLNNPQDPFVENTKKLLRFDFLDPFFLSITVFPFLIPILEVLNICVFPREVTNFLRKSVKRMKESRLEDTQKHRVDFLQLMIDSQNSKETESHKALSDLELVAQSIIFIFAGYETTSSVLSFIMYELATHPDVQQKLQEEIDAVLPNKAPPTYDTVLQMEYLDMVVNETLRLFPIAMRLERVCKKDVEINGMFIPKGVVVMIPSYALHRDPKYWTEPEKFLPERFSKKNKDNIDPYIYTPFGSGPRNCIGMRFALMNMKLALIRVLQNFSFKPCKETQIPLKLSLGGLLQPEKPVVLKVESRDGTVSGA

[3] = molecular target: Gamma-secretase; test: Modulation of gamma secretase in human H4 cells transfected with APP751 SWE clone 8.20 mutant assessed as inhibition of amyloid beta (1 to 42) production after 19 hrs; assay type: cell-based
[4] = species: Mus musculus; conditions: Brain, 30 mg/kg
[5] = molecular target: Voltage-gated inwardly rectifying potassium channel KCNH2 (Homo sapiens, UniProt Q12809); test: Inhibition of human ERG by thallium flux assay
Chain of Voltage-gated inwardly rectifying potassium channel KCNH2 (Q12809 whole entry): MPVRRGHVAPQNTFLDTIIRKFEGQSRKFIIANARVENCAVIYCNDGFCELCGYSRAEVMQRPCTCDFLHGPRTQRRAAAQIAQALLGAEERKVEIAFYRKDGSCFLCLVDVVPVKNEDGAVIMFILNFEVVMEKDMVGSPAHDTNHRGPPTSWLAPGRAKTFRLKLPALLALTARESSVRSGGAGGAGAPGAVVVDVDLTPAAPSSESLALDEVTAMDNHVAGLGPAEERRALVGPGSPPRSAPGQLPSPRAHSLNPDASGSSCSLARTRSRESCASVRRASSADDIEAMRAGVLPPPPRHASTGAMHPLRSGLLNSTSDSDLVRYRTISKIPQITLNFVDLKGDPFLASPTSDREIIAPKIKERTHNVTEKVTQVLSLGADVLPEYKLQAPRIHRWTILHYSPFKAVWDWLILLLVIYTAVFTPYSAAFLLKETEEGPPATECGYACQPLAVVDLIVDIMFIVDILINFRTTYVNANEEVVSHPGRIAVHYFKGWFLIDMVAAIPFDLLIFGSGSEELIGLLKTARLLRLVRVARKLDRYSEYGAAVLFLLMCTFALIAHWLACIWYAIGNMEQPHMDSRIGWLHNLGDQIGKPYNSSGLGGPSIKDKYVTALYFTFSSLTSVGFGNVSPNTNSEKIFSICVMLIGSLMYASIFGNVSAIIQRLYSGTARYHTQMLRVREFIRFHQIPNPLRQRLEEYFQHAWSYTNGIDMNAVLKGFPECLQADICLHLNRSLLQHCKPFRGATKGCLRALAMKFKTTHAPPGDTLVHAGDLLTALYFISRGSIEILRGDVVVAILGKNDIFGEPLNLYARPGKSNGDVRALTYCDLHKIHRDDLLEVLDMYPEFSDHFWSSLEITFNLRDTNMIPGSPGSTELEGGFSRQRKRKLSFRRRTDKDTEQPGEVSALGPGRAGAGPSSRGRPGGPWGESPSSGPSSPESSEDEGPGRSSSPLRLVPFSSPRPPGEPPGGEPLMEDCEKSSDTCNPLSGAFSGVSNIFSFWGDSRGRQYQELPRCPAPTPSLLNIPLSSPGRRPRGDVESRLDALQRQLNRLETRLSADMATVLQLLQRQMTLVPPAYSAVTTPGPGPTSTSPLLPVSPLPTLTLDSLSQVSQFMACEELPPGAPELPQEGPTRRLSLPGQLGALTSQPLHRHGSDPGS

[6] = system: Liver microsome; test: Drug metabolism in human liver microsomes; assay type: ADME
[7] = Plasma protein binding in human; assay type: ADME, cell-free; conditions: read-out: PPB
[8] = Plasma protein binding in mouse; assay type: ADME, cell-free; conditions: read-out: PPB
[9] = Plasma concentration in 3x transgenic Alzheimer's disease mouse model at 1 mg/kg, po measured after 3 hrs; assay type: ADME, organism-based; conditions: 3x transgenic Alzheimer's disease model
[10] = Plasma concentration in 3x transgenic Alzheimer's disease mouse model at 3 mg/kg, po measured after 3 hrs; assay type: ADME, organism-based; conditions: 3x transgenic Alzheimer's disease model
[11] = Plasma concentration in 3x transgenic Alzheimer's disease mouse model at 10 mg/kg, po measured after 3 hrs; assay type: ADME, organism-based; conditions: 3x transgenic Alzheimer's disease model
[12] = Plasma concentration in 3x transgenic Alzheimer's disease mouse model at 30 mg/kg, po measured after 3 hrs; assay type: ADME, organism-based; conditions: 3x transgenic Alzheimer's disease model
[13] = Plasma concentration in 3x transgenic Alzheimer's disease mouse model at 100 mg/kg, po measured after 3 hrs; assay type: ADME, organism-based; conditions: 3x transgenic Alzheimer's disease model
[14] = Total drug level in 3x transgenic Alzheimer's disease mouse brain at 30 mg/kg, po measured after 3 hrs; assay type: ADME, organism-based; conditions: 3x transgenic Alzheimer's disease model, read-out: Drug uptake
[15] = system: Mus musculus; test: Effect on total amyloid beta production in 3x transgenic mouse model of Alzheimer's disease at 1 to 100 mg/kg, po measured after 3 hrs by ELISA; assay type: ADME, organism-based; conditions: in vivo
[16] = Ratio of total drug level in brain to plasma in 3x transgenic mouse model of Alzheimer's disease at 30 mg/kg, po measured after 3 hrs; assay type: ADME, organism-based; conditions: 3x transgenic Alzheimer's disease model, read-out: BPR
[17] = system: Mus musculus; test: Anti-alzheimer activity in 3x transgenic mouse model of Alzheimer's disease assessed as amyloid beta (1 to 42) level in brain at 1 mg/kg, po measured after 3 hrs by ELISA relative to control; assay type: functional
[18] = system: Mus musculus; test: Anti-alzheimer activity in 3x transgenic mouse model of Alzheimer's disease assessed as amyloid beta (1 to 42) level in brain at 3 mg/kg, po measured after 3 hrs by ELISA relative to control; assay type: functional
[19] = system: Mus musculus; test: Anti-alzheimer activity in 3x transgenic mouse model of Alzheimer's disease assessed as amyloid beta (1 to 42) level in brain at 10 mg/kg, po measured after 3 hrs by ELISA relative to control; assay type: functional
[20] = system: Mus musculus; test: Anti-alzheimer activity in 3x transgenic mouse model of Alzheimer's disease assessed as amyloid beta (1 to 42) level in brain at 30 mg/kg, po measured after 3 hrs by ELISA relative to control; assay type: functional
[21] = system: Mus musculus; test: Anti-alzheimer activity in 3x transgenic mouse model of Alzheimer's disease assessed as amyloid beta (1 to 42) level in brain at 100 mg/kg, po measured after 3 hrs by ELISA relative to control; assay type: functional

SMILES	IC50 ([1]; read-out: IC50) [nM]	IC50 [2] [nM]	further results
Cc1ncn(-c2ccc3c(c2)CCc2cnn(Cc4ccccc4)c2N3)n1			IC50 [1]: Not Active
Cc1ncn(-c2ccc3c(c2)NC(=O)c2ccc(Cc4ccccc4)nc2N3)n1	460	2000	
CNc1nc(Nc2ccc(-n3cncn3)c(OC)c2)nc(-c2ccccc2)n1			IC50 [3]: 180 nM
Clc1cn(-c2ccc3c(c2)CCc2cnn(Cc4ccccc4)c2N3)cn1			IC50 [1]: Not Active
COc1ccc(Cc2nc3c(n2C)CCc2cc(-n4cnc(C)c4)ccc2C3=O)cc1	1100		
COc1ccc(Cc2nc3c(o2)CCc2cc(-c4ccnc(C)c4)ccc2C3=O)cc1	300	300	
CNc1nc(Cc2ccccc2)nc(Nc2ccc(-n3cnc(C)c3)c(OC)c2)n1			IC50 [3]: 29 nM
N#Cc1ccc2c(c1)CCc1sc(Cc3ccccc3)nc1N2	1200		
Cc1cn(-c2ccc3c(c2)CCc2ccc(Cc4ccc(F)cc4)nc2C3=O)cn1	1000	300	
Cc1cncn1-c1ccc2c(c1)CCc1sc(Cc3ccc(F)cc3)nc1N2	1800		
Cc1cn(-c2cc3c(cc2F)Nc2nc(Cc4ccccc4)ccc2C(=O)N3)cn1	820	30	
COc1ccc(Cc2nc3c(n2C)CCc2cc(-c4ccnc(C)c4)ccc2C3=O)cc1	380	300	
CC(c1ccccc1)c1ccc2c(n1)Nc1ccc(-n3cnc(Cl)c3)cc1NC2=O (racemic)	200	> 13000	

Second part, led by results:

IC50 ([1]; read-out: IC50) [nM]	IC50 [2] [nM]	SMILES	further results
140		Cc1ncn(-c2ccc3c(c2)CCc2sc(Cc4ccccc4)nc2N3)n1	
50		Cc1cc(-c2ccc3c(c2)CCc2sc(Cc4ccccc4)nc2N3)ccn1	
40	300	Clc1cn(-c2ccc3c(c2)CCc2cn(Cc4ccccc4)nc2N3)cn1	
190	> 13000	O=C1Nc2cc(-n3cnc(Cl)c3)ccc2Nc2nc(Cc3ccccc3)ccc21	
100	200	Cc1cn(-c2ccc3c(c2)NC(=O)c2ccc(C(C)c4ccccc4)nc2N3)cn1 (racemic)	
80		Cc1cc(-c2ccc3c(c2)CCc2sc(Cc4ccc(F)cc4)nc2N3)ccn1	
140		Clc1cn(-c2ccc3c(c2)CCc2sc(Cc4ccccc4)nc2N3)cn1	
50	150	Cc1cn(-c2ccc3c(c2)NC(=O)c2ccc(Cc4ccccc4)nc2N3)cn1	inhibition [4]: inactive
180	300	Cc1ncn(-c2ccc3c(c2)CCc2cn(Cc4ccccc4)nc2N3)n1	
20		Cc1cn(-c2ccc3c(c2)CCc2sc(Cc4ccc(F)cc4)nc2N3)cn1	
120		Cc1cc(-c2ccc3c(c2)CCc2sc(Cc4ccc(F)c(F)c4)nc2N3)ccn1	
35	700	Cc1cn(-c2ccc3c(c2)CCc2sc(Cc4ccccc4)nc2N3)cn1	inhibition (INH) [5]: Not Active; Drug metabolism [6]: 0.035 nmol/min/mg; fraction unbound [7]: < 0.002; fraction unbound [8]: < 0.002; concentration at 3 h [9]: 0.21 µM; concentration at 3 h [10]: 0.48 µM; concentration at 3 h [11]: 3.8 µM; concentration at 3 h [12]: 8 µM; concentration at 3 h [13]: 25 µM; concentration at 3 h [14]: 8.9 µM; Activity [15]: Non-toxic; Kp at 3 h [16]: 1.1; Activity [17]: 110%; Activity [18]: 100%; Activity [19]: 70%; Activity [20]: 60%; Activity [21]: 50%
